Results reported in ChEMBL document CHEMBL5729337, “Substituted eneoxindoles and uses thereof” (2022).

Target: Mitogen-activated protein kinase kinase kinase kinase 1 (Homo sapiens, UniProt Q92918)
Assay: Biochemical Assay: The enzymatic activity of human HPK1 (MAP4K1) was monitored in a biochemical assay in the presence or absence of compounds and using a synthetic peptide substrate. An increase in phosphorylation of the peptide by HPK1 was indicative of its kinase activity.Recombinant HPK1 kinase domain produced via baculovirus infection of insect cells was obtained from Proteros (Proteros Biostructures #PR-0322) and was pre-activated in the presence of 2 mM ATP (Sigma-Aldrich, cat #GE27-2056-01) and 2 mM magnesium chloride for 16 hours at 4° C. The protein reaction mixture was then loaded to a desalting column (Thermo Fisher Scientific, Cat #89889) to remove excess ATP. HPK1 was eluted with buffer containing 20 mM Tris (2-Amino-2-(hydroxymethyl)propane-1,3-diol) pH 8.0, 150 mM NaCl, 2 mM dithiothreitol and 5% glycerol, and was frozen at −80° C. for later use. HPK1 dual phosphorylation was confirmed by mass spectrometry.

Chain of Mitogen-activated protein kinase kinase kinase kinase 1 (Q92918 whole entry, the tested form may be a part): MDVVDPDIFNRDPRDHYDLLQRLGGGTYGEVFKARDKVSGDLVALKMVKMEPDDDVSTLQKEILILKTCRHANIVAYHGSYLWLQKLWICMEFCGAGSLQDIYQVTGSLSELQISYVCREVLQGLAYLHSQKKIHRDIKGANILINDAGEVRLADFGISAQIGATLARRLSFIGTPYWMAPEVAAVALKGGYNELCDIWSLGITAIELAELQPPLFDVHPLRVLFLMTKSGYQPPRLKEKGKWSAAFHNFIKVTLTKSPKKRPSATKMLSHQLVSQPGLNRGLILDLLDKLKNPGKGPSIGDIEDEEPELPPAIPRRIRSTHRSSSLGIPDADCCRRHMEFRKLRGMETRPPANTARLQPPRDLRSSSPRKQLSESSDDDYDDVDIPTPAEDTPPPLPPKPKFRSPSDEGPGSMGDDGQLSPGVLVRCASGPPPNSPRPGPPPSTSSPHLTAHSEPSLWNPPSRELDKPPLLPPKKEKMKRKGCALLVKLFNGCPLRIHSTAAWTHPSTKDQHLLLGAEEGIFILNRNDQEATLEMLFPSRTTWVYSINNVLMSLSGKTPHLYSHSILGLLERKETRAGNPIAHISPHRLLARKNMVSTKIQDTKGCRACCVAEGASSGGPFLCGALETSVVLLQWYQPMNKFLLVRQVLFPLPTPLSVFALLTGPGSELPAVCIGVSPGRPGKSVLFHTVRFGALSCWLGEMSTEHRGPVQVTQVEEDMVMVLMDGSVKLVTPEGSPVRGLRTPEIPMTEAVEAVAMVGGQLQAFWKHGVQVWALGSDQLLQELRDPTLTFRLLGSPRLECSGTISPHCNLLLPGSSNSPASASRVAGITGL

IC50: 100 pM
SMILES: Cc1c(-c2cc(F)c3c(c2)/C(=C/c2cc4cnccc4[nH]2)C(=O)N3)cnc2c1NCCO2
